Assay results from patent US20230095558A1, “IMMUNE CHECKPOINT TIM3-TARGETING BINDING PEPTIDE AND APPLICATION THEREOF” (Sparx Biotech (Jiangsu) Co., Ltd., priority 2020, published 2023).
No end group written: not given here.

Key:
CD4+ T cells = experiment: Mixed lymphocyte reaction (DCs + CD4+ T cells), cytokine ELISA; format: cell-based, human; details: MLR; for expression level of INF-γ: ELISA on day 5, vs control groups (P<0.01 or P<0.05)
Protocol: Identification of the functional activity of TIM3-targeting binding peptides was performed by evaluating the levels of activation and proliferation of T cells, i.e., the levels of expression of IL-2 and IFN-γ cytokines. First, Dendritic Cells (DCs) and CD4+T cells were obtained by magnetic bead sorting, and then the levels of IFN-γ cytokines and IL-2 were detected by a Mixed Lymphocyte Reaction (MLR) experiment simulating close to human physiological environment and an ELISA experiment, to identify biological activities of the TIM3-targeting binding peptides.
Culture of Dendritic cells (DCs): Isolated dendritic cells (DCs) were cultured in Mo-DC differentiation medium (10^7 cells/10 mL medium), and 10 mL of the same medium was added to the cells after 3 days (the cells were cultured in the differentiation medium at 37° C., 5% CO2 and >95% humidity for 6 days). On day 7, DCs were resuspended in Mo-DC mature medium and cultured for further 3 days by addition of the Mo-DC differentiation medium. Matured DC and newly isolated T cells (DC and T cells from different donors) were mixed for mixed lymphocyte reaction. Approximately 1×10^4 DCs and 1×10^5 T cells per well were mixed and cultured in 200 μL RPMI-1640 medium with 10% FBS. To evaluate the activity (gradient action), competitive inhibition (P26 and ligand), synergistic effect (TIM3-targeting binding peptides and the PD-1 inhibitor Opdivo) of the binding peptides TIM3-targeting binding peptides, the corresponding concentrations of peptides, Opdivo, Galectin-9 were added to the corresponding wells to interact with the cells. The expression levels of IFN-γ (or IL-2) secreted in the cell supernatant were measured on day 5.
T cell activity were tested according to the instructions of the ELISA kit. Briefly, the capture antibody dilutions were coated on a 96-well plate overnight (24 hours) at room temperature at a concentration of 2 μg/mL in a volume of 100 μL. On the following day, the capture antibody solution was aspirated and the wells were washed three times with 300 μL wash buffer PBST (0.05% Tween®20, pH 7.2-7.4). Thereafter, the test wells were blocked with 300 μL of 1% BSA-PBS for 1 hour. After blocking, the test wells were washed in the same manner as above and 100 μL of the test samples or standards (in 1% BSA-PBS) were pipetted into each well for 2 hours. Thereafter, the detection antibody (125 ng/mL, 100 μL) was added to each well according to the instructions of the human IFN-γ/IL-2 Duo Set ELISA kit, and incubated for 2 hours. Then, HRP (100 μL, incubated for 20 minutes) and TMB (100 μL) were added. At the end of each step, each well was washed in the same manner as described above. After completion of the color development, the test wells were terminated with 12.5% H2SO4 (50 μL/well) and read on an ELISA plate reader at a wavelength of 450/570 nm. All experimental test wells were repeated.

TIM3 protein = biological target: T1, TIM3 protein (Homo sapiens, UniProt Q8TDQ0); experiment: SPR affinity of TIM3-targeting binding peptides to immobilized TIM3 protein; details: TIM3 sensor chip, dissociation rate
T1 sequence (Q8TDQ0 22-301): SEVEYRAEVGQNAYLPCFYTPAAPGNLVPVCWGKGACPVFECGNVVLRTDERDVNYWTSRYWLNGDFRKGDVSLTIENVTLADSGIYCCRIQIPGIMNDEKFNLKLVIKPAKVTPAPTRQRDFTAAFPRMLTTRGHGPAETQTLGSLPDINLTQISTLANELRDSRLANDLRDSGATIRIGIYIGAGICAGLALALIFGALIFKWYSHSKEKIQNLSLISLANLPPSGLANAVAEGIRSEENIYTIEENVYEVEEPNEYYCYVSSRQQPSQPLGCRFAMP
Protocol: The binding properties of the TIM3-targeting binding peptides to TIM3 and their competition experiments with Galectin-9-bound TIM3 were identified by flow cytometry and surface plasmon resonance (SPROpenSPR, Nicoya, V3.01) detection.
SPR assay: Affinity identification between the TIM3-targeting binding peptides and TIM3 was performed by immobilizing TIM3 protein (50 μg/mL) on the surface of a nanogold sensor chip upon activation of EDC/NHS. The TIM3-targeting binding peptides were diluted with buffer (PBS, pH 7.4) to concentrations of […], 19.5 μM, 39 μM and 78 μM, respectively. The competitive binding ability of the TIM3-targeting binding peptides to the ligand was identified by immobilizing the Galectin-9 protein (25 μg/mL) on a sensor chip at a detection concentration of 100 μg/mL for the TIM3-targeting binding peptides, and at a concentration of the mixed sample of 100 μg/mL TIM3-targeting binding peptides and 10 μg/mL TIM3 protein. The detection sample was loaded at a flow rate of 20 μL/min for about 7 min according to the instrument instructions. The KD, ka and kd values were calculated and analyzed by Trace Drawer Evaluation (version 2.0) software.

MC38-hPDL1 tumor = experiment: In vivo anti-tumor growth in MC38-hPDL1 tumor-bearing mice humanized with TIM3; set-up: species or system C57BL/6J mice transduced with the human TIM3 gene; details: 21 days, intraperitoneal, P26 5 mg/kg QD, ATE 10 mg/kg twice a week
Description: In this example, the anti-tumor growth effect of the TIM3-targeting binding peptides was farther examined in mice. The tumor inhibitory effect of the TIM3-targeting binding peptides on C57BL/6J MC38-hPDL1 tumor-bearing mice humanized with TIM3 was detected by the following experimental steps: 1. Inoculation of mice: […]-hPDL1 tumor cells (1×10^6 cells/mouse) were inoculated subcutaneously into C57BL/6J mice transduced with the human TIM3 gene. 2. Grouping: Mice were randomly divided into 4 groups with 7 mice per group when tumors reached 80 100 mm^3. 3. Administration: PBS (negative control), PD-L1 humanized antibody (positive control), polypeptides alone (experimental group) and polypeptides plus PD-L1 humanized antibody (synergistic effect group) were administered intraperitoneally to mice in each group, respectively. The amount of antibody used was 10 mg/kg twice a week. The amount of polypeptide was 5 mg/kg once daily. Tumor size and body weight of the mice were measured every 3 days. 4. Post-administration treatment: mice were euthanized 3 weeks after administration. Tumors were isolated, weighed, and photographed.

ALWPSSSMSSTI [P1303, ALWPSSSMSSTI]
expression level of INF-γ (CD4+ T cells): significantly increased
koff (TIM3 protein): 3.08×10^−3 S^−1

GSWNTFRAQPTI [P24, GSWNTFRAQPTI]
koff (TIM3 protein): 1.69×10^−5 S^−1

SQEVFAWTFSPRWTTAPKAL [K3]
expression level of INF-γ (CD4+ T cells): significantly increased
koff (TIM3 protein): 1.32×10^−2 S^−1

QNPPLENTVYQEPFWQHAVD (A TIM3-targeting binding peptide) [K7, 20-peptide targeting TIM3]
expression level of INF-γ (CD4+ T cells): significantly increased

FTYAHPVSHRWESSVHVDQW [K2]
expression level of INF-γ (CD4+ T cells): significantly increased
koff (TIM3 protein): 1.03×10^−2 S^−1

TFLNSVPTYSYW (A TIM3-targeting binding peptide) [P1310, 12-peptide targeting TIM3]
expression level of INF-γ (CD4+ T cells): significantly increased

WQQNNPHLWDVFLGVPRTTE [K5]
expression level of INF-γ (CD4+ T cells): significantly increased
koff (TIM3 protein): 1.60×10^−2 S^−1

HDAFPRPHLFRN [P1301, HDAFPRPHLFRN]
expression level of INF-γ (CD4+ T cells): significantly increased
koff (TIM3 protein): 4.28×10^−3 S^−1

SPFYYSGHQWVPHPRQAASY [K10]
expression level of INF-γ (CD4+ T cells): significantly increased
koff (TIM3 protein): 2.30×10^−2 S^−1

GLIPLTTMHIGK (A TIM3-targeting binding peptide) [P26, 12-peptide targeting TIM3]
expression level of INF-γ (CD4+ T cells): significantly increased
reversal of Galectin-9-mediated inhibition of CD4+ T cell activation (IFN-γ and IL-2 expression levels) (CD4+ T cells; P26 100 μg/mL, Galectin-9 5 μg/mL, ELISA): reversed
tumor volumes (MC38-hPDL1 tumor; compared to control group): tended to decrease
growth of the tumor (tumor weight) (MC38-hPDL1 tumor; vs control group P<0.05): inhibited

HYEADPYEAWYDAWDDIHTY (A TIM3-targeting binding peptide) [K1, 20-peptide targeting TIM3]
expression level of INF-γ (CD4+ T cells): significantly increased

ADFRVMADMSMY [P29, ADFRVMADMSMY]
expression level of INF-γ (CD4+ T cells): significantly increased
koff (TIM3 protein): 7.47×10^−3 S^−1

SHDTRSPFTWGR [P1307, SHDTRSPFTWGR]
koff (TIM3 protein): 7.89×10^−3 S^−1
